The CheMixHub viscosity set
± gives the uncertainty stated by the source.

Test: xn = mol fraction of the nth substance listed

OCCO + CCO
viscosity [mPa·s], 101 kPa
Details | x1 = 0.1 | x1 = 0.2 | x1 = 0.3 | x1 = 0.3778 | x1 = 0.4 | x1 = 0.5 | x1 = 0.6 | x1 = 0.7 | x1 = 0.8 | x1 = 0.9
298.15 K | 1.439 ± 0.038 | 1.908 ± 0.051 | 2.546 ± 0.068 | 3.567 ± 0.027 | 3.382 ± 0.091 | 4.487 ± 0.12 | 5.986 ± 0.16 | 7.908 ± 0.21 | 10.41 ± 0.28 | 13.61 ± 0.37
308.15 K | 1.05 ± 0.028 | 1.524 ± 0.04 | 1.991 ± 0.053 | 2.688 ± 0.021 | 2.581 ± 0.069 | 3.346 ± 0.089 | 4.363 ± 0.12 | 5.645 ± 0.15 | 7.295 ± 0.2 | 9.374 ± 0.25
318.15 K | 0.9744 ± 0.026 | 1.253 ± 0.033 | 1.604 ± 0.043 | 2.13 ± 0.017 | 2.053 ± 0.055 | 2.598 ± 0.069 | 3.325 ± 0.089 | 4.216 ± 0.11 | 5.306 ± 0.14 | 6.652 ± 0.18

S=C=S + CCO
298.15 K, 101 kPa
Details | viscosity [mPa·s]
x1 = 0.1096 | 0.9448 ± 0.0072
x1 = 0.1264 | 0.9535 ± 0.0073
x1 = 0.1726 | 0.9065 ± 0.007
x1 = 0.2241 | 0.8407 ± 0.0065
x1 = 0.2832 | 0.7621 ± 0.006
x1 = 0.4039 | 0.6659 ± 0.0054
x1 = 0.5848 | 0.5669 ± 0.0048
x1 = 0.6266 | 0.5466 ± 0.0047
x1 = 0.7329 | 0.4926 ± 0.0043

CCC(=O)c1ccccc1 + CCOC(C)=O
viscosity [mPa·s], 101 kPa
Details | x1 = 0.0764 | x1 = 0.1569 | x1 = 0.2419 | x1 = 0.3317 | x1 = 0.4268 | x1 = 0.5276 | x1 = 0.6347 | x1 = 0.7486 | x1 = 0.8701
303.15 K | 0.4784 ± 0.01 | 0.5399 ± 0.012 | 0.6088 ± 0.013 | 0.6897 ± 0.015 | 0.7853 ± 0.017 | 0.8977 ± 0.02 | 1.034 ± 0.023 | 1.199 ± 0.027 | 1.398 ± 0.032
308.15 K | 0.4618 ± 0.01 | 0.519 ± 0.011 | 0.5844 ± 0.013 | 0.6608 ± 0.015 | 0.7493 ± 0.017 | 0.8602 ± 0.019 | 0.9953 ± 0.022 | 1.153 ± 0.026 | 1.333 ± 0.03
313.15 K | 0.4426 ± 0.0096 | 0.4991 ± 0.011 | 0.5564 ± 0.012 | 0.6277 ± 0.014 | 0.7199 ± 0.016 | 0.8175 ± 0.018 | 0.9454 ± 0.021 | 1.095 ± 0.025 | 1.261 ± 0.029

S=C=S + CCOC(C)=O
298.15 K, 101 kPa
Details | viscosity [mPa·s]
x2 = 0.1445 | 0.367 ± 0.005
x2 = 0.3581 | 0.389 ± 0.005
x2 = 0.6307 | 0.416 ± 0.006

S=C=S + CCOCC
298.15 K, 101 kPa
Details | viscosity [mPa·s]
x2 = 0.1341 | 0.338 ± 0.005
x2 = 0.3497 | 0.306 ± 0.004
x2 = 0.6338 | 0.269 ± 0.004

CCC(=O)c1ccccc1 + CCOCCO
viscosity [mPa·s], 101 kPa
Details | x1 = 0.0756 | x1 = 0.1554 | x1 = 0.2397 | x1 = 0.3291 | x1 = 0.4239 | x1 = 0.5246 | x1 = 0.6319 | x1 = 0.7464 | x1 = 0.8688
303.15 K | 1.562 ± 0.064 | 1.555 ± 0.064 | 1.547 ± 0.064 | 1.54 ± 0.063 | 1.532 ± 0.063 | 1.526 ± 0.063 | 1.522 ± 0.063 | 1.517 ± 0.063 | 1.515 ± 0.063
308.15 K | 1.466 ± 0.06 | 1.464 ± 0.06 | 1.462 ± 0.06 | 1.461 ± 0.06 | 1.461 ± 0.06 | 1.461 ± 0.06 | 1.462 ± 0.06 | 1.464 ± 0.061 | 1.466 ± 0.061
313.15 K | 1.366 ± 0.056 | 1.369 ± 0.056 | 1.372 ± 0.056 | 1.376 ± 0.057 | 1.381 ± 0.057 | 1.387 ± 0.057 | 1.394 ± 0.058 | 1.401 ± 0.058 | 1.41 ± 0.058
318.15 K | 1.279 ± 0.053 | 1.285 ± 0.053 | 1.291 ± 0.053 | 1.3 ± 0.053 | 1.309 ± 0.054 | 1.32 ± 0.055 | 1.331 ± 0.055 | 1.343 ± 0.056 | 1.357 ± 0.056

O=CN1CCOCC1 + CCc1ccccc1
298.15 K, 101.3 kPa
Details | viscosity [mPa·s]
x2 = 0.03224 | 6.848 ± 0.048
x2 = 0.06252 | 6.122 ± 0.043
x2 = 0.08602 | 5.678 ± 0.041
x2 = 0.1584 | 4.43 ± 0.033
x2 = 0.2704 | 3.151 ± 0.024
x2 = 0.3512 | 2.527 ± 0.02
x2 = 0.4701 | 1.841 ± 0.015
x2 = 0.5569 | 1.511 ± 0.012
x2 = 0.6373 | 1.261 ± 0.01
x2 = 0.6888 | 1.137 ± 0.009
x2 = 0.7771 | 0.986 ± 0.008
x2 = 0.8636 | 0.829 ± 0.007
x2 = 0.9317 | 0.713 ± 0.006

CCCCCCn1cc[n+](C)c1.[Cl-] + CN1CCCC1=O
100 kPa
Details | viscosity [mPa·s]
293.15 K, x1 = 0.0917 | 4.165 ± 0.18
293.15 K, x1 = 0.3673 | 49.65 ± 2.1
298.15 K, x1 = 0.1861 | 8.485 ± 0.36
303.15 K, x1 = 0.3673 | 31.75 ± 1.3
308.15 K, x1 = 0.1861 | 6.465 ± 0.27

OCCO + CN1CCCC1=O
101.33 kPa
Details | viscosity [mPa·s]
298.15 K, x2 = 0.04751 | 15.44 ± 0.32
298.15 K, x2 = 0.09916 | 13.78 ± 0.29
298.15 K, x2 = 0.1991 | 10.76 ± 0.23
298.15 K, x2 = 0.3018 | 8.242 ± 0.18
298.15 K, x2 = 0.4012 | 6.415 ± 0.15
298.15 K, x2 = 0.5073 | 4.977 ± 0.12
298.15 K, x2 = 0.6067 | 3.952 ± 0.091
298.15 K, x2 = 0.7014 | 3.171 ± 0.07
298.15 K, x2 = 0.8018 | 2.527 ± 0.055
298.15 K, x2 = 0.9001 | 2.066 ± 0.044
298.15 K, x2 = 0.9545 | 1.852 ± 0.039
308.15 K, x2 = 0.04799 | 10.58 ± 0.22
308.15 K, x2 = 0.1004 | 9.465 ± 0.2
308.15 K, x2 = 0.2025 | 7.514 ± 0.16
308.15 K, x2 = 0.3042 | 5.982 ± 0.13
308.15 K, x2 = 0.4097 | 4.697 ± 0.11
308.15 K, x2 = 0.5032 | 3.855 ± 0.09
308.15 K, x2 = 0.6042 | 3.122 ± 0.071
308.15 K, x2 = 0.6992 | 2.566 ± 0.056
308.15 K, x2 = 0.7967 | 2.112 ± 0.045
308.15 K, x2 = 0.9027 | 1.716 ± 0.037
308.15 K, x2 = 0.9599 | 1.543 ± 0.033
318.15 K, x2 = 0.04516 | 7.524 ± 0.16
318.15 K, x2 = 0.1031 | 6.736 ± 0.14
318.15 K, x2 = 0.1996 | 5.567 ± 0.12
318.15 K, x2 = 0.2999 | 4.538 ± 0.099
318.15 K, x2 = 0.4047 | 3.687 ± 0.083
318.15 K, x2 = 0.5078 | 3.015 ± 0.07
318.15 K, x2 = 0.6054 | 2.505 ± 0.056
318.15 K, x2 = 0.6952 | 2.124 ± 0.046
318.15 K, x2 = 0.7968 | 1.771 ± 0.038
318.15 K, x2 = 0.8899 | 1.498 ± 0.032
318.15 K, x2 = 0.9612 | 1.327 ± 0.028
